What was measured:
[1] = In vivo toxicity, chronic daily intraperitoneal injection; parameters: species or system mouse; conditions: 1, 10 and 25 mg/kg daily i.p. for 1 month
Procedure: In order to assess the anti-tumor properties of A41 in vivo, we first would like to make sure of the safety and the absence of major off-target effects of A41. […] In vivo safety has been addressed by monitoring various biological parameters in mice chronically receiving daily intraperitoneal A41 injection (1, 10, and 25 mg/kg) for 1 month. […] We then analyzed pharmacokinetics and tissue distribution of A41 following intraperitoneal injection of A41 (25 mg/kg). A41 rapidly reached its peak plasma concentration (∼15 min, 15.056 ± 0.5 μg/mL), which then declined over 2–3 h (Figure S7). A41 was detected in the liver, heart, and lungs.
Supplementary Fig. 6: In vivo A41 toxicity. (a) Effect of chronic administration of A41 at the indicated concentrations by daily intraperitoneal injections in mice on weight gain glycemia. (b) and (c), Glycemia (b) and plasmatic concentration of transaminases (ALAT and ASAT), albumin, urea, creatinine and total protein in mice after of 1 month of chronic administration of A41 at indicated concentrations (c). N=6-7

[2] = molecular target: ATPase, Na+/K+, Heart, Pig (Sus scrofa, UniProt P05024); experiment: Safety screen; type: biochemical
Procedure: (§1) Blood cell counts, kinase profiler, safety screen, bacterial cytotoxicity, Ames, micronucleus assays were performed by the company Eurofins (France). The kinase profiler was performed by the company Eurofins (Discovery, Panlab and Cerep).

[3] = molecular target: Monoamine Oxidase MAO-A (Homo sapiens, UniProt P21397); experiment: Safety screen; type: biochemical
Procedure: as §1

[4] = molecular target: Adrenergic β1 (Homo sapiens, UniProt P08588); experiment: Safety screen; type: binding
Procedure: as §1

[5] = molecular target: Cholecystokinin CCK2 (CCKB) (Homo sapiens, UniProt P32239); experiment: Safety screen; type: binding
Procedure: Blood cell counts, kinase profiler, safety screen, bacterial cytotoxicity, Ames, micronucleus assays were performed by the company Eurofins (France).

[6] = molecular target: ALK1(h) (Homo sapiens, UniProt P37023); experiment: Kinase Profiler; type: biochemical
Procedure: (§2) The kinase profiler was performed by the company Eurofins (Discovery, Panlab and Cerep).

[7] = molecular target: Bmx(h) (Homo sapiens, UniProt P51813); experiment: Kinase Profiler; type: biochemical
Procedure: as §1

[8] = molecular target: CaMKK1(h) (Homo sapiens, UniProt Q8N5S9); experiment: Kinase Profiler; type: biochemical
Procedure: as §2

[9] = molecular target: Cdc7/cyclinB1(h) (Homo sapiens, UniProt O00311); experiment: Kinase Profiler; type: biochemical
Procedure: as §2

[10] = molecular target: CDK6/cyclinD3(h) (Homo sapiens, UniProt Q00534); experiment: Kinase Profiler; type: biochemical
Procedure: as §1

[11] = molecular target: CDK9/cyclin T1(h) (Homo sapiens, UniProt P50750); experiment: Kinase Profiler; type: biochemical
Procedure: as §1

[12] = molecular target: DYRK2(h) (Homo sapiens, UniProt Q92630); experiment: Kinase Profiler; type: biochemical
Procedure: as §2

[13] = molecular target: ErbB4(h) (Homo sapiens, UniProt Q15303); experiment: Kinase Profiler; type: biochemical
Procedure: as §2

[14] = molecular target: FGFR4(h) (Homo sapiens, UniProt P22455); experiment: Kinase Profiler; type: biochemical
Procedure: as §2

[15] = molecular target: Hck(h) (Homo sapiens, UniProt P08631); experiment: Kinase Profiler; type: biochemical
Procedure: as §2

[16] = molecular target: IGF-1R(h), activated (Homo sapiens, UniProt P08069); experiment: Kinase Profiler; type: biochemical
Procedure: as §1

[17] = molecular target: IKKα(h) (Homo sapiens, UniProt O15111); experiment: Kinase Profiler; type: biochemical
Procedure: as §1

[18] = molecular target: Itk(h) (Homo sapiens, UniProt Q08881); experiment: Kinase Profiler; type: biochemical
Procedure: as §2

[19] = molecular target: LIMK1(h) (Homo sapiens, UniProt P53667); experiment: Kinase Profiler; type: biochemical
Procedure: as §2

[20] = molecular target: MARK4(h) (Homo sapiens, UniProt Q96L34); experiment: Kinase Profiler; type: biochemical
Procedure: as §2

[21] = molecular target: MEKK3(h) (Homo sapiens, UniProt Q99759); experiment: Kinase Profiler; type: biochemical
Procedure: as §2

[22] = molecular target: Met(Y1248D)(h) (Homo sapiens, UniProt P08581, Y1230D); experiment: Kinase Profiler; type: biochemical
Procedure: as §2

[23] = molecular target: NDR2(h) (Homo sapiens, UniProt Q9Y2H1); experiment: Kinase Profiler; type: biochemical
Procedure: as §2

[24] = molecular target: NEK6(h) (Homo sapiens, UniProt Q9HC98); experiment: Kinase Profiler; type: biochemical
Procedure: as §2

[25] = molecular target: PKCδ(h) (Homo sapiens, UniProt Q05655); experiment: Kinase Profiler; type: biochemical
Procedure: as §2

[26] = molecular target: PKCι(h) (Homo sapiens, UniProt P41743); experiment: Kinase Profiler; type: biochemical
Procedure: as §2

[27] = molecular target: PKD2(h) (Homo sapiens, UniProt Q9BZL6); experiment: Kinase Profiler; type: biochemical
Procedure: as §2

[28] = molecular target: Pyk2(h) (Homo sapiens, UniProt Q14289); experiment: Kinase Profiler; type: biochemical
Procedure: as §2

[29] = molecular target: STK25(h) (Homo sapiens, UniProt O00506); experiment: Kinase Profiler; type: biochemical
Procedure: as §2

[30] = molecular target: Tie2 (h) (Homo sapiens, UniProt Q02763); experiment: Kinase Profiler; type: biochemical
Procedure: as §1

[31] = molecular target: TNIK(h) (Homo sapiens, UniProt Q9UKE5); experiment: Kinase Profiler; type: biochemical
Procedure: as §2

[32] = molecular target: TSSK1(h) (Homo sapiens, UniProt Q9BXA7); experiment: Kinase Profiler; type: biochemical
Procedure: as §2

[33] = molecular target: PI3K (p110b/p85b)(m) (Mus musculus, UniProt Q8BTI9); experiment: Kinase Profiler; type: biochemical
Procedure: as §1

[34] = molecular target: PI3K (p110d/p85a)(m) (Mus musculus, UniProt O35904); experiment: Kinase Profiler; type: biochemical
Procedure: as §1

Sequence of NEK6(h) (Q9HC98 whole entry): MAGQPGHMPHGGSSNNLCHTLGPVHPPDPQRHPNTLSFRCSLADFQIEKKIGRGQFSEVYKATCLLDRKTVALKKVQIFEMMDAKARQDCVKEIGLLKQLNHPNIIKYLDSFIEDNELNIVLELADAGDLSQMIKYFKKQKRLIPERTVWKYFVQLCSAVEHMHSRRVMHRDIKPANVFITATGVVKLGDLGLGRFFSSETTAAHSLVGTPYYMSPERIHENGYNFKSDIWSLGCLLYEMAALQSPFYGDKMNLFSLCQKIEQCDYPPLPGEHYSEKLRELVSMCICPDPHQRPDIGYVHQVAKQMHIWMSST
Sequence of TNIK(h) (Q9UKE5 whole entry): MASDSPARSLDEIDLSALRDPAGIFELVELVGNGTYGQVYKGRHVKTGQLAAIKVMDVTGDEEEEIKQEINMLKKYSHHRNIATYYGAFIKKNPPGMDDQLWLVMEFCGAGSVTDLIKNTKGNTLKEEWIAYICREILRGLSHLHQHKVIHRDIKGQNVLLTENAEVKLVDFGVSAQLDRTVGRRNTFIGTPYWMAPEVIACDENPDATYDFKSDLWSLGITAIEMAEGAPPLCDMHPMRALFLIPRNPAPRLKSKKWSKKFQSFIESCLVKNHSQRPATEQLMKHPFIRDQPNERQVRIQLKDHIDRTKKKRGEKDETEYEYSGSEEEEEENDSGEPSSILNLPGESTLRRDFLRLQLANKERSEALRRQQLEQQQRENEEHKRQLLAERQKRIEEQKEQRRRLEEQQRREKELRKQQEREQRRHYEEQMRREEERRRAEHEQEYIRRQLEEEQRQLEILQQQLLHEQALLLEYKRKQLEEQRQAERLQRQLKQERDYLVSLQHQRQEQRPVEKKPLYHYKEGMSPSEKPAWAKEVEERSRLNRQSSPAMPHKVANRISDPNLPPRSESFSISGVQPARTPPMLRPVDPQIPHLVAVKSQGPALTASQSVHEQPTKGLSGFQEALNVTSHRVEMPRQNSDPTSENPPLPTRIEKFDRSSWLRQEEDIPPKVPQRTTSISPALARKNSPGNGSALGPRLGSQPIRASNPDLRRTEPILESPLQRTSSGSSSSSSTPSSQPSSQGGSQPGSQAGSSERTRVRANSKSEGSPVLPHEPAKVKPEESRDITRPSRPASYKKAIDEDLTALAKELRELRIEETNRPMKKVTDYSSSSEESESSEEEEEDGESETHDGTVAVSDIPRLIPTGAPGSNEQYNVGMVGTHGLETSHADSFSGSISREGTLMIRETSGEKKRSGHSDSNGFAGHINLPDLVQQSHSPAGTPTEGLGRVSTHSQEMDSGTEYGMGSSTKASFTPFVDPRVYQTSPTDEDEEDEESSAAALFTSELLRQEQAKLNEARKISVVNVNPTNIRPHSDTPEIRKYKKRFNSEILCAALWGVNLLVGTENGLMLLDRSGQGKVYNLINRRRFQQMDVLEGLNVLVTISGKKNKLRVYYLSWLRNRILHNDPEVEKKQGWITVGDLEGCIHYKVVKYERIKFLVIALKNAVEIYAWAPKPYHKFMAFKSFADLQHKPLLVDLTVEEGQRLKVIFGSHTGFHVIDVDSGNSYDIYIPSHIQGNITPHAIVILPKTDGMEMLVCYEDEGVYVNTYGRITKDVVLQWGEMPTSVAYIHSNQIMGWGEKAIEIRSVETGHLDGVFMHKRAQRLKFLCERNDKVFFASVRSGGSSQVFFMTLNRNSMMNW
Sequence of Cholecystokinin CCK2 (CCKB) (P32239 whole entry): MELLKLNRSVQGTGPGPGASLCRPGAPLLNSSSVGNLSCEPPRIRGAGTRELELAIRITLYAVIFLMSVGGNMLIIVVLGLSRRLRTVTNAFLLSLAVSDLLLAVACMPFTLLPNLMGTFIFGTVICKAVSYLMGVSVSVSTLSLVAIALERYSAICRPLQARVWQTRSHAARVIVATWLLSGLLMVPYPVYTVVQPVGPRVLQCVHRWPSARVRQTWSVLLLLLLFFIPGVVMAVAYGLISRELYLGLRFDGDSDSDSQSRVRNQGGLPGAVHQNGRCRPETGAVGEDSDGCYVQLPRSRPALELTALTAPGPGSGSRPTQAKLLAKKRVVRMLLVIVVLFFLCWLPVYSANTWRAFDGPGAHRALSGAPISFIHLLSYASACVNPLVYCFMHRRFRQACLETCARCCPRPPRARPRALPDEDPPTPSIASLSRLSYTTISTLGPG
Sequence of IKKα(h) (O15111 whole entry): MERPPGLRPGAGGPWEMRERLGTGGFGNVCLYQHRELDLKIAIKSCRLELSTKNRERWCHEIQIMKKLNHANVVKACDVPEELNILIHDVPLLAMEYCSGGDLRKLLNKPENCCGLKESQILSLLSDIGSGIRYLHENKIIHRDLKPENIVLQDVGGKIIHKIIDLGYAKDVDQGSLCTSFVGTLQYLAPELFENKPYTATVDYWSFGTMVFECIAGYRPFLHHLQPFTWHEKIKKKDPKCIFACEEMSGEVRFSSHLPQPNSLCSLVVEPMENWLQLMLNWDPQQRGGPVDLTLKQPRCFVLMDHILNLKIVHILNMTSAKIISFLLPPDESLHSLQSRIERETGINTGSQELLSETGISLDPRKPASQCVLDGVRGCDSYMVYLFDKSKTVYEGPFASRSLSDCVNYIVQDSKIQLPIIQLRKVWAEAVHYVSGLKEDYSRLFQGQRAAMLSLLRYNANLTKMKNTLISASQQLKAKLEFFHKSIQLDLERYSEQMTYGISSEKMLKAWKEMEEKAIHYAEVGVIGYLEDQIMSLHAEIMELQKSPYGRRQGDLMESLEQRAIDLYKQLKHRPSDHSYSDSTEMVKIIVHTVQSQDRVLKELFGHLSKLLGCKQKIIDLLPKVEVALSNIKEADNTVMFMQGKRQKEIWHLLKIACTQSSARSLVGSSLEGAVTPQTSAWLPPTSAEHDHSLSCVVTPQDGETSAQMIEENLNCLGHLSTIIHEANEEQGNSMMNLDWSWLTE
Sequence of CDK6/cyclinD3(h) (Q00534 whole entry): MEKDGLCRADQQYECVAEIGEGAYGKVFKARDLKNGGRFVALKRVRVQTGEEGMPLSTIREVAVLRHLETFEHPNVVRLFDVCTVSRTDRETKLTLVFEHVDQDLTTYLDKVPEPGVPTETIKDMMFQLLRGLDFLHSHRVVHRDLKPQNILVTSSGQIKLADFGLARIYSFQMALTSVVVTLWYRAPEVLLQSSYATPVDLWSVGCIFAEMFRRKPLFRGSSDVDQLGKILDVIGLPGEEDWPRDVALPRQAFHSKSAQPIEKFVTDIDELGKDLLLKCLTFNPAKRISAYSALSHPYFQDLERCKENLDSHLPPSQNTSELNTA
Sequence of CDK6/cyclinD3(h) (P30281 whole entry partner): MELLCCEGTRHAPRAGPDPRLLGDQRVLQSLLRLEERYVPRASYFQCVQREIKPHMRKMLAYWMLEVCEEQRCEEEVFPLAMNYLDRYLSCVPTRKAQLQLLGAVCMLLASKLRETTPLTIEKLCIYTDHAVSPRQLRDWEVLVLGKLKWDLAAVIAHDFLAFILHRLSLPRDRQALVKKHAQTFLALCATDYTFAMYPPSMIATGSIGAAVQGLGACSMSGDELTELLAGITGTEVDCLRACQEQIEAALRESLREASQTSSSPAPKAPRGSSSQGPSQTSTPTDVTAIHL
Sequence of Tie2 (h) (Q02763 23-1124): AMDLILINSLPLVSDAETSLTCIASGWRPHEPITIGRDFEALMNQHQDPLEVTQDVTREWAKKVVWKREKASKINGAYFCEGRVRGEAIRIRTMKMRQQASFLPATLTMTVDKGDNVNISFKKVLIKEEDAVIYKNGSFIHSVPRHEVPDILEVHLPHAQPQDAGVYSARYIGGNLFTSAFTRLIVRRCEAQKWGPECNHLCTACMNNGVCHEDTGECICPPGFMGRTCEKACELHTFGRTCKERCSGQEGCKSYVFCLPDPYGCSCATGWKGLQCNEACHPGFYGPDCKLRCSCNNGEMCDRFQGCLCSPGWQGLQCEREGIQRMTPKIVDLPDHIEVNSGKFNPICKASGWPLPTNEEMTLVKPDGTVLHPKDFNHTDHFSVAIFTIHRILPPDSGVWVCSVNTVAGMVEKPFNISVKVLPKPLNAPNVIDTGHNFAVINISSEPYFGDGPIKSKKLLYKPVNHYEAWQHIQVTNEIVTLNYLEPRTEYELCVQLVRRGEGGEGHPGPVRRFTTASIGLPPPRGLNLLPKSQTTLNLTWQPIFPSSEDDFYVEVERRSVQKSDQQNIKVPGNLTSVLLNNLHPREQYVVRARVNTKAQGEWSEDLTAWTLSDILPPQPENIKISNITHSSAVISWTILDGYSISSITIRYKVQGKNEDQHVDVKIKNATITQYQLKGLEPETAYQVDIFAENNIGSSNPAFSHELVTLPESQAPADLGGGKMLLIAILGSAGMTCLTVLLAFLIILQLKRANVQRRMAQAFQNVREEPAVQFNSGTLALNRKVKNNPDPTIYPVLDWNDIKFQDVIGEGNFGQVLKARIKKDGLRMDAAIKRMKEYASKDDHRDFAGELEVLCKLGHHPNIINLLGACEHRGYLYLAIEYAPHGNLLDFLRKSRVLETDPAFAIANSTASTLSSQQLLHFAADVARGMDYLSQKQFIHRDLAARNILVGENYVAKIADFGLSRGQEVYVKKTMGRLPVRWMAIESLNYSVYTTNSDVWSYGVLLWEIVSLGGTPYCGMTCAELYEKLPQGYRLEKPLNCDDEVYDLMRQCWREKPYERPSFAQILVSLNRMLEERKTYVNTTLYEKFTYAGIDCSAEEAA
Sequence of TSSK1(h) (Q9BXA7 whole entry): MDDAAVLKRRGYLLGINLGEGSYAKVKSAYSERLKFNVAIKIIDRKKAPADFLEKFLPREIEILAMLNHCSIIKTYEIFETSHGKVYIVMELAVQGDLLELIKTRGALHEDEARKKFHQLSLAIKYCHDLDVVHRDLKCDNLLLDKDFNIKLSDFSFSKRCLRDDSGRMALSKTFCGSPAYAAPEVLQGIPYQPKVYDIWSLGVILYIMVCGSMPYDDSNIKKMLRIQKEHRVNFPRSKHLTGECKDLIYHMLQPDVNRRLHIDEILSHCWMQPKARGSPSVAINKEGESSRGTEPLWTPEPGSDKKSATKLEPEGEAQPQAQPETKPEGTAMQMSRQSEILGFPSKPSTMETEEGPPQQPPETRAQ

## COc1ccc(OC)c(NS(=O)(=O)c2ccc(NC(=O)CCSc3ccc(C)cc3)cc2)c1 [Compound A41]
[1]
  biological parameters incl. weight: None of the parameters measured, including the weight of the mice, was affected
  deaths: No deaths
  visual inspection (suffering, behavior): no sign of suffering or abnormal behavior
[2]
  % inh.: -15%
[3]
  % inh.: 10%
[4]
  % inh.: 2%
[5]
  % inh.: 0%
[6]
  Activity(%): 102%
[7]
  Activity(%): 124%
[8]
  Activity(%): 95%
[9]
  Activity(%): 92%
[10]
  Activity(%): 111%
[11]
  Activity(%): 92%
[12]
  Activity(%): 104%
[13]
  Activity(%): 108%
[14]
  Activity(%): 116%
[15]
  Activity(%): 111%
[16]
  Activity(%): 108%
[17]
  Activity(%): 107%
[18]
  Activity(%): 78%
[19]
  Activity(%): 113%
[20]
  Activity(%): 105%
[21]
  Activity(%): 109%
[22]
  Activity(%): 118%
[23]
  Activity(%): 112%
[24]
  Activity(%): 109%
[25]
  Activity(%): 110%
[26]
  Activity(%): 93%
[27]
  Activity(%): 100%
[28]
  Activity(%): 92%
[29]
  Activity(%): 98%
[30]
  Activity(%): 110%
[31]
  Activity(%): 94%
[32]
  Activity(%): 103%
[33]
  Activity(%): 100%
[34]
  Activity(%): 100%

Source: publication PMC12281424, “A Rac-specific competitive inhibitor of guanine nucleotide binding reduces metastasis in triple-negative breast cancer” (Cell Reports Medicine, 2025)
